Measurements taken from patent publication US8481576B2 (Abbott GmbH & Co. KG, priority 2004, dated 2013).
pKi: −log10 of the molar value. Where a name gives a salt, the structure may show the parent alone.

Biological target: T1, h5-HT5A receptor (Homo sapiens, UniProt P47898)
T1 construct: expressed in transfected cells; host or cells: HEK293
Experiment: [3H]5-CT binding assay h5-HT5A
Conditions: membranes from HEK293 cells expressing h5-HT5A, 2.5 nM [3H]5-CT; read-out: Binding affinity 5-HT5A (Ki)
Description: 1. [^3H]5-CT binding assay h5-HT5A
Membranes from HEK293-cells, which permanently express the h5-HT5A receptor gene, were incubated in 100 mM Tris-HCl-buffer (pH 7.7), containing 1 mM EDTA in the presence of 2.5 nM [^3H]5-CT (600 μl total volume). The total binding is defined as the binding which is observed when the membranes are incubated alone in the presence of the radioligand. The inhibition induced by the compound is determined by incubation of cell membranes in the presence of the radioligand, and of different concentrations of the compound of interest. Unspecific binding is defined by the binding of [^3H]5-CT, which is obtained by incubation of the membranes as for the total binding but in the presence of 10 μM methiothepine. Following an incubation of 75 minutes at 30° C. the membrane suspension is filtered through GF/B-filters, wrapped in 0.03% PEI, wherein a Skatron® harvest system is used. The radioactivity retained in the filter is quantified by liquid scintillation counting.
In both assays, different concentrations of the test substances are used, and the Ki or the IC50 values are determined.

T1 sequence (P47898 whole entry): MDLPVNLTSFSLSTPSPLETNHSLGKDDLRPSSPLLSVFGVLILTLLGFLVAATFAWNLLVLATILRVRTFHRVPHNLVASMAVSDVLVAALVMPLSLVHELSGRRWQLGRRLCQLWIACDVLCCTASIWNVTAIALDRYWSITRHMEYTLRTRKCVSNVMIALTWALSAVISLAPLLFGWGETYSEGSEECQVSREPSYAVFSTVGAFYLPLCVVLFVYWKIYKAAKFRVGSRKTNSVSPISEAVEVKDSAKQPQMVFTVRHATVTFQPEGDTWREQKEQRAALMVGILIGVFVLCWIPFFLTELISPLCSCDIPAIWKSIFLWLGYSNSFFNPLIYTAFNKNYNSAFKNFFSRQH

pKi	Compound
> 7.30	COc1cccc(OC)c1CNC(=N)Nc1nc(-c2ccc(F)c(F)c2)cs1 [Example 87, N-[4-(3,4-difluorophenyl)-1,3-thiazole-2-yl]-N′-(2,6-dimethoxybenzyl)guanidine hydrobromide]
> 7.30	COc1cccc(F)c1CNC(=N)Nc1cc(C(C)(C)C)[nH]n1 [Example 210, N-(5-tert-butyl-1H-pyrazole-3-yl)-N′-(2-fluoro-6-methoxybenzyl)guanidine]
> 7.30	COc1cccc(OC)c1CNC(=N)Nc1nc(C2CCN(S(C)(=O)=O)CC2)cs1 [Example 163, N-(2,6-dimethoxybenzyl)-N′-{4-[1-(methylsulfonyl)piperidine-4-yl]-1,3-thiazole-2-yl}guanidine]
> 7.30	COc1cccc(OC)c1CNC(=N)Nc1nc(-c2ccc(C)cc2)cs1 [Example 57, N-(2,6-dimethoxybenzyl)-N′-[4-(4-methylphenyl)-1,3-thiazole-2-yl]guanidine]
< 6.30	Cc1ccccc1CNC(=N)Nc1nccs1 [Example 12, N-(2-methylbenzyl)-N′-1,3-thiazole-2-ylguandine]
> 7.30	COc1cccc(Cl)c1CNC(=N)Nc1nccs1 [Example 6, N-(2-chloro-6-methoxybenzyl)-N′-1,3-thiazole-2-ylguanidine hydrochloride]
> 7.30	COC(=O)Cc1csc(NC(=N)NCc2c(OC)cccc2OC)n1 [Example 49, Methyl-(2-{[[(2,6-dimethoxybenzyl)amino](imino)methyl]amino}-1,3-thiazole-4-yl)acetate]
> 7.30	COc1cccc(OC)c1CNC(=N)Nc1nc(-c2ccc(NS(C)(=O)=O)cc2)cs1 [Example 71, N-[4-(2-{[[(2,6-dimethoxybenzyl)amino](imino)methyl]amino}-1,3-thiazole-4-yl)phenyl]methanesulfonamide hydrobromide]
> 7.30	COc1cccc(OC)c1CNC(=N)Nc1nc(C2CCCN2C)cs1 (centres unmarked) [Example 149, N-(2,6-dimethoxybenzyl)-N′-[4-(1-methylpyrrolidine-2-yl)-1,3-thiazole-2-yl]guanidine]
> 7.30	COc1cc(F)ccc1-c1csc(NC(=N)NCc2c(OC)cccc2OC)n1 [Example 111, N-(2,6-dimethoxybenzyl)-N′-[4-(4-fluoro-2-methoxyphenyl)-1,3-thiazole-2-yl]guanidine]
< 6.30	COc1cccc(C)c1CNC(=N)Nc1nc(-c2ccc(Cl)cn2)cs1 [Example 137, N-[4-(5-chloropyridine-2-yl)-1,3-thiazole-2-yl]-N′-(2-methoxy-6-methylbenzyl)guanidine]
> 7.30	COc1ccccc1CNC(=N)Nc1nc(C)cs1 [Example 39, N-(2-methoxybenzyl)-N′-(4-methyl-1,3-thiazole-2-yl)guanidine (2E)-But-2-endioate]
> 7.30	COc1cccc(OC)c1CNC(=N)Nc1nc(-c2ccc(F)cc2)c(C)s1 [Example 118, N-(2,6-dimethoxybenzyl)-N′-[4-(4-fluorophenyl)-5-methyl-1,3-thiazole-2-yl]guanidine]
> 7.30	COc1ccccc1CNC(=N)Nc1cc(-c2ccc(C)cc2)[nH]n1 [Example 206, N-(2-methoxybenzyl)-N′-[5-(4-methylphenyl)-1H-pyrazole-3-yl]guanidine]
6.30 to 7.30	COc1cccc(OC)c1CNC(=N)Nc1nc(-c2cc(C(F)(F)F)cc(C(F)(F)F)c2)cs1 [Example 19, N-{4-[3,5-bis(trifluoromethyl)phenyl]-1,3-thiazole-2-yl}-N′-(2,6-dimethoxybenzyl)guanidine hydrobromide]
< 6.30	CC(=O)Nc1cccc(OCCCNC(=N)Nc2nccs2)c1 [Example 22, N-[3-(3-{[imino(1,3-thiazole-2-ylamino)methyl]amino}propoxy)phenyl]acetamide]

pKi	Compound
> 7.30	COc1cccc(OC)c1CNC(=N)Nc1nc(C2CCCN2C(C)=O)cs1 (centres unmarked) [Example 148, N-[4-(1-acetylpyrrolidine-2-yl)-1,3-thiazole-2-yl]-N′-(2,6-dimethoxybenzyl)guanidine]
6.30 to 7.30	COc1cccc(Cl)c1CNC(=N)Nc1nc(-c2ccc(F)cc2)cs1 [Example 136, N-(2-chloro-6-methoxybenzyl)-N′-[4-(4-fluorophenyl)-1,3-thiazole-2-yl]guanidine]
6.30 to 7.30	COc1cccc(OC)c1CNC(=N)Nc1nc(-c2ccc(Cl)cc2)cs1 [Example 38, N-[4-(4-chlorophenyl)-1,3-thiazole-2-yl]-N′-(2,6-dimethoxybenzyl)guanidine]
6.30 to 7.30	COc1ccccc1CNC(=N)Nc1nnc(C)s1 [Example 178, N-(2-methoxybenzyl)-N′-(5-methyl-1,3,4-thiadiazole-2-yl)guanidine]
> 7.30	COc1ccccc1CNC(=N)Nc1nc(-c2ccccn2)cs1 [Example 41, N-(2-methoxybenzyl)-N′-(4-pyridine-2-yl-1,3-thiazole-2-yl)guanidine]
6.30 to 7.30	COc1ccccc1CNC(=N)Nc1ncc[nH]1 [Example 183, N-1H-imidazole-2-yl-N′-(2-methoxybenzyl)guanidine acetate]
< 6.30	COc1ccccc1CNC(=N)Nc1n[nH]cc1-c1ccccc1 [Example 217, N-(2-methoxybenzyl)-N′-(4-phenyl-1H-pyrazole-3-yl)guanidine]
> 7.30	CCOc1ccccc1CNC(=N)Nc1nccs1 [Example 8, N-(2-ethoxybenzyl)-N′-1,3-thiazole-2-ylguanidine hydrochloride]
6.30 to 7.30	COc1cccc(OC)c1CNC(=N)Nc1nc2cc(Cl)c(C)cc2s1 [Example 171, N-(5-chlor-6-methyl-1,3-benzothiazole-2-yl)-N′-(2,6-dimethoxybenzyl)guanidine difumarate]
> 7.30	COc1cccc(OC)c1CNC(=N)Nc1nc(-c2ccc(N3CCCC3)cc2)cs1 [Example 63, N-(2,6-dimethoxybenzyl)-N′-[4-(4-pyrrolidine-1-ylphenyl)-1,3-thiazole-2-yl]guanidine hydrobromide]
> 7.30	COc1cccc(OC)c1CNC(=N)Nc1nc(-c2ccc(F)cc2F)cs1 [Example 91, N-[4-(2,4-difluorophenyl)-1,3-thiazole-2-yl]-N′-(2,6-dimethoxybenzyl)guanidine hydrobromide]
> 7.30	COc1cccc(OC)c1CNC(=N)Nc1nc(-c2csc3ccccc23)cs1 [Example 96, N-[4-(1-benzothiene-3-yl)-1,3-thiazole-2-yl]-N′-(2,6-dimethoxybenzyl)guanidine hydrobromide]
6.30 to 7.30	COc1cccc(Cl)c1CNC(=N)Nc1nc(-c2ccc(Cl)cn2)cs1 [Example 134, N-(2-chloro-6-methoxybenzyl)-N′-[4-(5-chloropyridine-2-yl)-1,3-thiazole-2-yl]guanidine]
< 6.30	CC(=O)c1cccc(OCCCNC(=N)Nc2nccs2)c1 [Example 23, N-[3-(3-acetylphenoxy)propyl]-N′-1,3-thiazole-2-ylguanidine (2E)-But-2-endioate]
> 7.30	COc1ccc(-c2csc(NC(=N)NCc3c(OC)cccc3OC)n2)cc1 [Example 58, N-(2,6-dimethoxybenzyl)-N′-[4-(4-methoxyphenyl)-1,3-thiazole-2-yl]guanidine]
> 7.30	COc1cccc(OC)c1CNC(=N)Nc1nc(-c2ncc(F)cc2F)cs1 [Example 145, N-[4-(3,5-difluoropyridine-2-yl)-1,3-thiazole-2-yl]-N′-(2,6-dimethoxybenzyl)guanidine]
